The results in this text go back to patent US9150566B2, “2-(1,2,3-triazol-2-yl)benzamide and 3-(1,2,3-triazol-2-YL)picolinamide derivatives as orexin receptor antagonists” (ACTELION PHARMACEUTICALS LTD., priority 2011, dated 2015).

For data set [1], the target named is CYP3A4 (Homo sapiens (Human), UniProt P08684). As to the kind of experiment: CYP3A4 inhibition assay (human liver microsomes, testosterone 6β-hydroxylation). The following applies: read-out: CYP3A4 IC50, 40 μM testosterone. In general terms: Liver microsomes are vesicles of endoplasmic reticulum, rich in cytochrome P450 enzymes.
For data set [2], the target named is human orexin-1 receptor (Homo sapiens (Human), UniProt O43613). As to the kind of experiment: In vitro intracellular calcium measurements (FLIPR), antagonistic activity on orexin-1 receptor. It counts as cell-based. The following applies: read-out: IC50 OX1. In outline:
(§1)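 Recombinant CHO lines bearing human OX1 or OX2 receptors received test antagonist 120 min before agonist addition.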
(Calcium flux is commonly read through the fluorescence of an indicator in the cells.)

Data set [3] has as its target human orexin-2 receptor (Homo sapiens (Human), UniProt O43614). The data set is described as follows: In vitro intracellular calcium measurements (FLIPR), antagonistic activity on orexin-2 receptor. It counts as cell-based. The settings on record: read-out: IC50 OX2. In a few lines: as §1
The mark [4] stands for this setting: CHO cells expressing human orexin-1 receptor, FLIPR, 3 nM orexin-A agonist, 120 min antagonist incubation, geometric mean if determined several times.
The mark [5] stands for this setting: CHO cells expressing human orexin-2 receptor, FLIPR, 3 nM orexin-A agonist, 120 min antagonist incubation, geometric mean if determined several times.

pIC50: −log10 of the molar value. Read-outs that look alike come from different tables or passages of the source.

Chain of CYP3A4 (P08684 whole entry): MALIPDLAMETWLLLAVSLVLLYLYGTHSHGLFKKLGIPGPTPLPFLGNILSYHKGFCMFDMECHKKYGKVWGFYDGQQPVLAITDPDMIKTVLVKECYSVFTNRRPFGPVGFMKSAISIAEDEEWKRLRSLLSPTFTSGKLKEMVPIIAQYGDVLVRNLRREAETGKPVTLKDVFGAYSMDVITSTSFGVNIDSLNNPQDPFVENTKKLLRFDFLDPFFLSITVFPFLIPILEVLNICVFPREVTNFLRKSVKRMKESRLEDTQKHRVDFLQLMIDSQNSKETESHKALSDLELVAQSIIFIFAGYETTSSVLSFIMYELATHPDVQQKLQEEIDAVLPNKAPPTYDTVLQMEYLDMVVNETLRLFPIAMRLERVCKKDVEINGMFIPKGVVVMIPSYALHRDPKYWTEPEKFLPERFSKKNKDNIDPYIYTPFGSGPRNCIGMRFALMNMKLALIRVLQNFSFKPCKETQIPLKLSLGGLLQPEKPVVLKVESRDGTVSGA
Chain of human orexin-1 receptor (O43613 whole entry): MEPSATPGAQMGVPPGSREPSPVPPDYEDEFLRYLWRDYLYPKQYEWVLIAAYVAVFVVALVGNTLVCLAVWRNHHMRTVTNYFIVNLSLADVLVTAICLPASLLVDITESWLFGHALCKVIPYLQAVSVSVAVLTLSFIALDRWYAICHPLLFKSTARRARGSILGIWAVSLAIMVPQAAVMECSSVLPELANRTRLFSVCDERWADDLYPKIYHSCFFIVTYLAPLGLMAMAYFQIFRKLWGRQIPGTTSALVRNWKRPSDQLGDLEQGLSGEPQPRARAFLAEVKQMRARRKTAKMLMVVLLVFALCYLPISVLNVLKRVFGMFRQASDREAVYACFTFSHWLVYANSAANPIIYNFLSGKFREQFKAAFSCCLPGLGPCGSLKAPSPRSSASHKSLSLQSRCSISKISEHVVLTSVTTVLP
Chain of human orexin-2 receptor (O43614 whole entry): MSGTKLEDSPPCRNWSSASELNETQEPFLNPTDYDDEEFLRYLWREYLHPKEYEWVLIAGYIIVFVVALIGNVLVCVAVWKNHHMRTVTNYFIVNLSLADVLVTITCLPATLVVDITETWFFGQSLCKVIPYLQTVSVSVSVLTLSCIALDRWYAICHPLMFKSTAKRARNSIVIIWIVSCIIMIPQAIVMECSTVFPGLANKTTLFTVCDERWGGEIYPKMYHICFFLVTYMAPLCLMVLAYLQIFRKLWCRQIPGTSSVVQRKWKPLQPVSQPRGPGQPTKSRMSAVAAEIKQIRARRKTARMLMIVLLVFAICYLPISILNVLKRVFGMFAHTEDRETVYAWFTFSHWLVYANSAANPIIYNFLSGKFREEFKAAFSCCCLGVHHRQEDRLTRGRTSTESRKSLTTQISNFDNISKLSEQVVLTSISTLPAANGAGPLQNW

Take `Cc1ccc(-n2nccn2)c(C(=O)N2CCOC[C@H]2Cc2cc(-n3nccn3)ccc2F)c1` [Example 56, [(R)-3-(2-Fluoro-5-[1,2,3]triazol-2-yl-benzyl)-morpholin-4-yl]-(5-methyl-2-[1,2,3]triazol-2-yl-phenyl)-methanone]: the pIC50 was 4.48 in data set [1], 8.40 in data set [2] (setting [4]) and 6.08 in data set [3] (setting [5]).
Take `CC[C@@H]1CN(C(=O)c2cc(C)ccc2-n2nccn2)[C@H](Cc2cccc(-n3nccn3)c2)CO1` [Example 142, [(2R,5R)-2-Ethyl-5-(3-[1,2,3]triazol-2-yl-benzyl)-morpholin-4-yl]-(5-methyl-2-[1,2,3]triazol-2-yl-phenyl)-methanone]: the negative logarithm of the IC50 (pIC50) in data set [1] was 5.04; in data set [2] (setting [4]), 8.30; in data set [3] (setting [5]) it was 6.54.
The corresponding values for `Cc1ccc(-n2nccn2)c(C(=O)N2CCOC[C@H]2Cc2cc(-n3cccn3)ccc2C)c1` [Example 188, [(R)-3-(2-Methyl-5-pyrazol-1-yl-benzyl)-morpholin-4-yl]-(5-methyl-2-[1,2,3]triazol-2-yl-phenyl)-methanone] are 4.85, 7.68 and 5.67.
Turning to `COc1cc(C(=O)N2CCOC[C@H]2Cc2cccc(-n3nccn3)c2)c(-n2nccn2)cc1F` [Example 78, (4-Fluoro-5-methoxy-2-[1,2,3]triazol-2-yl-phenyl)-[(R)-3-(3-[1,2,3]triazol-2-yl-benzyl)-morpholin-4-yl]-methanone], the pIC50 was 4.66 in data set [1], 7.77 in data set [2] (setting [4]) and 6.28 in data set [3] (setting [5]).
The corresponding values for `Cc1ccc(-n2nccn2)c(C(=O)N2CCOC[C@H]2Cc2cccc(-n3cccn3)c2)c1` [Example 19, (5-Methyl-2-[1,2,3]triazol-2-yl-phenyl)-[(R)-3-(3-pyrazol-1-yl-benzyl)-morpholin-4-yl]-methanone] are 4.49, 8.70 and 6.43.
The corresponding values for `COc1ccc(C[C@@H]2COCCN2C(=O)c2cc(C)ccc2-n2nccn2)cc1-c1ncon1` [Example 58, [(R)-3-(4-Methoxy-3-[1,2,4]oxadiazol-3-yl-benzyl)-morpholin-4-yl]-(5-methyl-2-[1,2,3]triazol-2-yl-phenyl)-methanone] are 4.38, 9.15 and 7.38.
`O=C(c1ccc(F)cc1-n1nccn1)N1CCOC[C@H]1Cc1cccc(-n2nccn2)c1` [Example 36, (4-Fluoro-2-[1,2,3]triazol-2-yl-phenyl)-[(R)-3-(3-[1,2,3]triazol-2-yl-benzyl)-morpholin-4-yl]-methanone]: the pIC50 in data set [1] was 4.44; in data set [2], 7.39; in data set [3], 6.05.
With `Cc1ccc(-n2nccn2)cc1C[C@@H]1COCCN1C(=O)c1ccccc1-n1nccn1` [Example 121, [(R)-3-(2-Methyl-5-[1,2,3]triazol-2-yl-benzyl)-morpholin-4-yl]-(2-[1,2,3]triazol-2-yl-phenyl)-methanone], the pIC50 in data set [1] was 4.74; in data set [2] (setting [4]) it was 7.59; in data set [3] (setting [5]), 5.79.
`Cc1ccc(C(=O)N2C[C@@H](C)OC[C@H]2Cc2cccc(-c3ncccn3)c2)c(-n2nccn2)c1` [Example 110, [(2R,5R)-2-Methyl-5-(3-pyrimidin-2-yl-benzyl)-morpholin-4-yl]-(4-methyl-2-[1,2,3]triazol-2-yl-phenyl)-methanone]: the pIC50 in data set [1] was less than 4.30; in data set [2] (setting [4]), 8.70; in data set [3] (setting [5]), 6.75.
As for `Cc1ccc(C(=O)N2C[C@@H](C)OC[C@H]2Cc2cccc(-n3nccn3)c2)c(-n2nccn2)c1C` [Example 99, (3,4-Dimethyl-2-[1,2,3]triazol-2-yl-phenyl)-[(2R,5R)-2-methyl-5-(3-[1,2,3]triazol-2-yl-benzyl)-morpholin-4-yl]-methanone], the pIC50 in data set [1] was 5.02; in data set [2] (setting [4]) it was 8.30; in data set [3] (setting [5]) it was 5.91.
In the case of `COc1cc(C(=O)N2CCOC[C@H]2Cc2cccc(-n3nccn3)c2)c(-n2nccn2)cc1OC` [Example 34, (4,5-Dimethoxy-2-[1,2,3]triazol-2-yl-phenyl)-[(R)-3-(3-[1,2,3]triazol-2-yl-benzyl)-morpholin-4-yl]-methanone], the pIC50 in data set [1] is less than 4.30; in data set [2] (setting [4]), 8.30; in data set [3] (setting [5]) it was 5.91.
Consider `Cc1ccc(C(=O)N2CCOC[C@H]2Cc2ccc(C)c(-n3nccn3)c2)c(-n2nccn2)c1` [Example 67, [(R)-3-(4-Methyl-3-[1,2,3]triazol-2-yl-benzyl)-morpholin-4-yl]-(4-methyl-2-[1,2,3]triazol-2-yl-phenyl)-methanone], for which the pIC50 was 4.60 in data set [1], 8.70 in data set [2] and 6.56 in data set [3].
Turning to `O=C(c1ccc(Cl)cc1-n1nccn1)N1CCOC[C@H]1Cc1cc(-n2nccn2)ccc1Cl` [Example 170, [(R)-3-(2-Chloro-5-[1,2,3]triazol-2-yl-benzyl)-morpholin-4-yl]-(4-chloro-2-[1,2,3]triazol-2-yl-phenyl)-methanone], the pIC50 is 5.01 in data set [1], 8.15 in data set [2] (setting [4]) and 6.35 in data set [3] (setting [5]).
On the same counts, the results for `Cc1ccc(-n2nccn2)c(C(=O)N2CCOC[C@H]2Cc2cccc(-c3ncon3)c2)c1` [Example 2, (5-Methyl-2-[1,2,3]triazol-2-yl-phenyl)-[(R)-3-(3-[1,2,4]oxadiazol-3-yl-benzyl)-morpholin-4-yl]-methanone] are 4.37, 8.15 and 6.39.
The corresponding values for `C[C@@H]1CN(C(=O)c2cc(Cl)ccc2-n2nccn2)[C@H](Cc2cc(-n3nccn3)ccc2F)CO1` [Example 186, (5-Chloro-2-[1,2,3]triazol-2-yl-phenyl)-[(2R,5R)-5-(2-fluoro-5-[1,2,3]triazol-2-yl-benzyl)-2-methyl-morpholin-4-yl]-methanone] are 4.72, 7.96 and 6.74.
The corresponding values for `Cc1ccc(C[C@@H]2COCCN2C(=O)c2ccccc2-n2nccn2)cc1-c1ncccn1` [Example 192, [(R)-3-(4-Methyl-3-pyrimidin-2-yl-benzyl)-morpholin-4-yl]-(2-[1,2,3]triazol-2-yl-phenyl)-methanone] are less than 4.30, 7.80 and 5.58.
As for `O=C(c1cc(F)c(F)cc1-n1nccn1)N1CCOC[C@H]1Cc1cccc(-n2nccn2)c1` [Example 91, (4,5-Difluoro-2-[1,2,3]triazol-2-yl-phenyl)-[(R)-3-(3-[1,2,3]triazol-2-yl-benzyl)-morpholin-4-yl]-methanone], the pIC50 is 4.77 in data set [1], 8.00 in data set [2] (setting [4]) and 6.21 in data set [3] (setting [5]).
The corresponding values for `Cc1cc(C(=O)N2CCOC[C@H]2Cc2cccc(-c3ncon3)c2)c(-n2nccn2)cc1C` [Example 85, (4,5-Dimethyl-2-[1,2,3]triazol-2-yl-phenyl)-[(R)-3-(3-[1,2,4]oxadiazol-3-yl-benzyl)-morpholin-4-yl]-methanone] are 4.60, 9.00 and 7.68.
With `Cc1ccc(-n2nccn2)c(C(=O)N2C[C@@H](C)OC[C@H]2Cc2cc(-n3nccn3)ccc2F)c1` [Example 115, [(2R,5R)-5-(2-Fluoro-5-[1,2,3]triazol-2-yl-benzyl)-2-methyl-morpholin-4-yl]-(5-methyl-2-[1,2,3]triazol-2-yl-phenyl)-methanone], the pIC50 in data set [1] is 4.62; in data set [2] (setting [4]), 8.70; in data set [3] (setting [5]), 6.84.
Consider `Cc1ccc(-n2nccn2)c(C(=O)N2CCOC[C@H]2Cc2cccc(-n3ccnn3)c2)c1` [Example 15, (5-Methyl-2-[1,2,3]triazol-2-yl-phenyl)-[(R)-3-(3-[1,2,3]triazol-1-yl-benzyl)-morpholin-4-yl]-methanone], for which the pIC50 was 4.85 in data set [1], 7.62 in data set [2] (setting [4]) and 5.50 in data set [3] (setting [5]).
The corresponding values for `O=C(c1ccccc1-n1nccn1)N1CCOC[C@H]1Cc1cccc(-c2ncon2)c1` [Example 1, [(R)-3-(3-[1,2,4]Oxadiazol-3-yl-benzyl)-morpholin-4-yl]-(2-[1,2,3]triazol-2-yl-phenyl)-methanone] are less than 4.30, 7.40 and 6.10.
In the case of `Cc1ccc(-n2nccn2)c(C(=O)N2CCCC[C@H]2Cc2cccc(-n3nccn3)c2)c1` [Ref. 4], the pIC50 was 5.11 in data set [1], 9.52 in data set [2] (setting [4]) and 8.70 in data set [3] (setting [5]).
The corresponding values for `C[C@@H]1CN(C(=O)c2cc(Cl)ccc2-n2nccn2)[C@H](Cc2cc(-c3ncccn3)ccc2F)CO1` [Example 152, (5-Chloro-2-[1,2,3]triazol-2-yl-phenyl)-[(2R,5R)-5-(2-fluoro-5-pyrimidin-2-yl-benzyl)-2-methyl-morpholin-4-yl]-methanone] are 4.82, 8.40 and 6.89.
For the compound `Cc1ccc(-n2nccn2)c(C(=O)N2CCOC[C@H]2Cc2cccc(-n3cncn3)c2)c1` [Example 23, (5-Methyl-2-[1,2,3]triazol-2-yl-phenyl)-[(R)-3-(3-[1,2,4]triazol-1-yl-benzyl)-morpholin-4-yl]-methanone], the pIC50 in data set [1] is 5.22; in data set [2] (setting [4]), 7.47; in data set [3] (setting [5]) it was 5.32.
The corresponding values for `COc1ccc(C[C@@H]2COCCN2C(=O)c2ccccc2-n2nccn2)cc1-c1cccnn1` [Example 7, [(R)-3-(4-Methoxy-3-pyridazin-3-yl-benzyl)-morpholin-4-yl]-(2-[1,2,3]triazol-2-yl-phenyl)-methanone] are less than 4.30, 7.59 and 5.22.

The term pIC50 denotes the IC50 on a negative log10 scale, so that one unit is a factor of ten.
